Patent US8648070B2, “Bicyclic ring system substituted sulfonamide functionalised phenols as medicaments” (Boehringer Ingelheim International GmbH, priority 2010, dated 2014)
pIC50: −log10 of the molar value.

Each compound was assayed against T1, human CXCR2 (Homo sapiens, UniProt P25025) (assay: Chemotaxis assay 1, transfected cell line: inhibition of CXCL1 induced chemotaxis of BAF/3 cells expressing human CXCR2). Details: CXCL1 (3 nM) induced chemotaxis of BAF/3 cells expressing human CXCR2, 4 hours, Cell Titer Glo readout.
T1 construct: expressed in transfected cells; host or cells: BAF/3 cells
T1 sequence (P25025 1-360): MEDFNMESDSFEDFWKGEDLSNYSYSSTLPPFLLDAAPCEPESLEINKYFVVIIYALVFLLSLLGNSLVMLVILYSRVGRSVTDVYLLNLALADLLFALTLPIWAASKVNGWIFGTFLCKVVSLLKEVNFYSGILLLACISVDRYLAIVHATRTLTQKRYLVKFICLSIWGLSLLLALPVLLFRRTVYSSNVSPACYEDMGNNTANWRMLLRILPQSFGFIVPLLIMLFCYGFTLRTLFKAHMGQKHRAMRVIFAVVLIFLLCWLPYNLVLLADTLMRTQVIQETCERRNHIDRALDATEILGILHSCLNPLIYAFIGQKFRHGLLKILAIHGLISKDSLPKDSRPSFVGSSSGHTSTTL
Format: cell-based
Description: Chemotaxis Assay 1, Transfected Cell Line:
This assay measures the inhibition of CXCL1 induced chemotaxis of BAF/3 cells expressing human CXCR2. For each assay point, 100 μL of a 3×10^6/mL cell suspension are incubated with 1 μL of test compound diluted in DMSO. The bottom wells of a chemotaxis plate (5 μm pore size, Neuroprobe) is filled with 305 μL of chemotaxis buffer (RPMI 1640 medium (phenol red free), containing 2% fetal calf serum) and 3 nM CXCL1. The 5 μm pore membrane is applied onto the chemotaxis plate and 80 μL of the cell suspension is cautiously pipetted onto the membrane. The lid is put on the chemotaxis plate and the plate is incubated for 4 hours in an incubator (37° C., 5% CO2). For quantification of migrated cells, the cell suspension and the lid are removed and 100 μL from the bottom chamber are transferred to an Opti plate 96 (Perkin Elmer). 100 μL of substrate solution (provided by Cell Titer Glo kit, Promega) are added. This method uses the measurement of ATP present in metabolically active cells. After 10 min incubation at room temperature the plate is measured at Luminoscan for quantification of ATP-dependent generation of oxyluciferin. IC50s of the tested compound are calculated by non-linear regression and using a sigmoidal dose-response curve as fitting algorithm (provided by GraphPadPrism). Determination of a bottom value is performed by quantification of migration of buffer treated cells, migrating towards buffer only. Determination of a top value is performed by quantification of migration of buffer treated cells, migrating towards CXCL1.

Compound | pIC50
CC[C@@H](Nc1c(Nc2ccc(Cl)c(S(=O)(=O)N3CCN4CCCC4C3)c2O)c(=O)c1=O)c1ccccc1 (some centres unmarked) [Example 1] | 9.15
CC[C@@H](Nc1c(Nc2ccc(Cl)c(S(=O)(=O)N3CCN4CCCC4C3)c2O)c(=O)c1=O)c1ccc(C)o1 (some centres unmarked) [Example 2] | 9.05
O=c1c(Nc2ccc(Cl)c(S(=O)(=O)N3CCN4CCCC4C3)c2O)c(Nc2cccc(F)c2Cl)c1=O (centres unmarked) [Example 3] | 8.29
CC[C@@H](Nc1c(Nc2ccc(Cl)c(S(=O)(=O)N3CCN4CCOCC4C3)c2O)c(=O)c1=O)c1ccccc1 (some centres unmarked) [Example 4] | 9.22
CC[C@@H](Nc1c(Nc2ccc(Cl)c(S(=O)(=O)N3CCN4CCOCC4C3)c2O)c(=O)c1=O)c1ccc(C)o1 (some centres unmarked) [Example 5] | 8.17
O=c1c(Nc2ccc(Cl)c(S(=O)(=O)N3CCN4CCOCC4C3)c2O)c(Nc2cccc(F)c2Cl)c1=O (centres unmarked) [Example 6] | 7.42
CC[C@@H](Nc1c(Nc2ccc(Cl)c(S(=O)(=O)N3CCN4CCOC[C@H]4C3)c2O)c(=O)c1=O)c1ccc(C)o1 [Example 7] | 8.31
CC[C@@H](Nc1c(Nc2ccc(Cl)c(S(=O)(=O)N3CCN4CCOC[C@H]4C3)c2O)c(=O)c1=O)c1ccc(C(F)(F)F)o1 [Example 8] | 7.25
CC[C@@H](Nc1c(Nc2ccc(Cl)c(S(=O)(=O)N3CCN4CCOC[C@@H]4C3)c2O)c(=O)c1=O)c1ccc(C)o1 [Example 9] | 7.87
CC[C@@H](Nc1c(Nc2ccc(Cl)c(S(=O)(=O)N3CCN4CCOC[C@@H]4C3)c2O)c(=O)c1=O)c1ccc(C(F)(F)F)o1 [Example 10] | 7.19
CCC(Nc1c(Nc2ccc(Cl)c(S(=O)(=O)N3CCN4C(=O)CCC4C3)c2O)c(=O)c1=O)c1ccccc1 (centres unmarked) [Example 11] | 8.59
CCC(Nc1c(Nc2ccc(Cl)c(S(=O)(=O)N3CCN4C(=O)CCC4C3)c2O)c(=O)c1=O)c1ccc(C)o1 (centres unmarked) [Example 12] | 7.84
CC[C@@H](Nc1c(Nc2ccc(Cl)c(S(=O)(=O)N3CCC4(CCNC4=O)CC3)c2O)c(=O)c1=O)c1ccccc1 [Example 13] | 7.65
CC[C@@H](Nc1c(Nc2ccc(Cl)c(S(=O)(=O)N3CCC4(CCNC4=O)CC3)c2O)c(=O)c1=O)c1ccc(C)o1 [Example 14] | 7.33
CC[C@@H](Nc1c(Nc2ccc(Cl)c(S(=O)(=O)N3CCC4(CC3)COCCN4)c2O)c(=O)c1=O)c1ccccc1 [Example 15] | 7.47
CC[C@@H](Nc1c(Nc2ccc(Cl)c(S(=O)(=O)N3CCC4(CC3)COCCN4)c2O)c(=O)c1=O)c1ccc(C)o1 [Example 16] | 8.06
CC[C@@H](Nc1c(Nc2ccc(Cl)c(S(=O)(=O)N3CCC4(CC3)COCCN4)c2O)c(=O)c1=O)c1ccc(C(F)(F)F)o1 [Example 17] | 7.26
CC[C@@H](Nc1c(Nc2ccc(Cl)c(S(=O)(=O)N3CCC4(CCCC4)CC3)c2O)c(=O)c1=O)c1ccccc1 [Example 18] | 6.83
CC[C@@H](Nc1c(Nc2ccc(Cl)c(S(=O)(=O)N3CCC4(CCCC4)CC3)c2O)c(=O)c1=O)c1ccc(C)o1 [Example 19] | 7.94
CC[C@@H](Nc1c(Nc2ccc(Cl)c(S(=O)(=O)N3C[C@H]4NCCO[C@@H]4C3)c2O)c(=O)c1=O)c1ccc(C)o1 [Example 20] | 7.23
